Laboratory results from US20240361301A1, “METHODS AND COMPOSITIONS FOR MODULATING GOBLET CELLS AND FOR MUCO-OBSTRUCTIVE DISEASES” (Flagship Pioneering Innovations VI, LLC, priority 2021, published 2024).

How the values were obtained:
[1] = tested on: mouse intestinal organoids; assay: Mouse small intestinal organoid differentiation, lineage markers by Q-PCR; type: cell-based; details: mouse intestinal organoids in ENR media, after 5 days of treatments, FIG. 1
Excerpt: Cryopreserved mouse intestinal organoids derived from small intestine were obtained from Stem Cell Technologies. The organoids were thawed and propagated in Intesticult Growth Medium (Mouse) (purchased from Stem Cell Technologies) following the company's instructions. Briefly, approximately 100 organoid fragments/well are embedded in 6 Matrigel domes in 6-well plates and growth media is renewed every 2-3 days. The organoids are passaged every 5-6 days in 1:4 ratio. To assess the potential of the predicted perturbations to induce or reduce the goblet cell lineage during organoid differentiation, an in vitro assay was established to induce the various intestinal lineages (enterocytes, goblet cells, Paneth cells, Enteroendocrine cells) based on published data (Yin et al, Nat. Meth. 2013). Briefly, organoid fragments are embedded in Matrigel and grown in custom-made media in the presence of EGF, Noggin, Rspondin (ENR) supplemented with the indicated factors (Table 4) that are known to induce markers of the various intestinal lineages. The expression of markers and the induction of the various cell lineages was assessed by Q-PCRs after 5 days of treatments (FIG. 1). Further characterization of the organoids will be performed by immunofluorescence staining and flow cytometry. For immunofluorescence commercially available antibodies against Muc2, ChrA, and ALPI will be used.

[2] = tested on: mouse intestinal organoids; details: factors known to induce markers of the intestinal lineages (Yin et al.), ENR media; cited from earlier work
[3] = tested on: Human bronchial epithelial cells (HBECs) from COPD donors; assay: IL-13 induced goblet hyperplasia in COPD donor HBEC air-liquid interface culture, qPCR; type: cell-based; details: 0.3 ng/ml IL-13, ALI day 14, vs DMSO
Excerpt: Air-liquid interface (ALI) differentiation of primary human bronchial epithelial cells (HBECs) is an accepted in vitro model of IL-13-induced goblet cell hyperplasia. HBECs were initially thawed into T75 flasks in PneumaCult maintenance media, allowed to expand, then seeded into apical chamber of transwells. After reaching confluency, medium was removed from the apical and basal chambers, and replaced only in the basal chamber with complete PneumaCult-ALI Medium to start air-liquid interface (ALI) differentiation. Cells were differentiated under ALI conditions for 14 days, in presence or absence of IL-13. Medium in the basal chamber containing IL-13 and test compounds was replenished 3 times a week, and excess mucus was washed from the apical chamber with PBS twice a week starting on day 7. At day 14, differentiation to goblet, ciliated, and club cells is assessed by histology (IHC) or qPCR, using goblet marker (Muc5ac), ciliated cell markers (Foxj1, Acetyl α-tubulin) and club cell marker (Scgb1a1) (FIG. 5).
Human bronchial epithelial cells (HBECs) from two COPD donors were differentiated in the presence of 0.3 ng/ml IL-13 and test compounds. At day 14, cultures were processed for qPCR, and evaluated for lung epithelial markers: goblet (Muc5ac), ciliated (Foxj1), club (Scgb1a1). 2^-ΔCt values were transformed to log form and normalized to DMSO. […]

Compound | expression of muc2 gene, a marker of Goblet cells (Q-PCR) [1] | Cell lineage induced by factor [2] | goblet cells / goblet hyperplasia (Muc5ac qPCR) ([3]; FIG. 6A) | differentiation to ciliated (Foxj1) and club (Scgb1a1) cells (qPCR) ([3]; FIG. 6B-6C)
C[C@H](NC(=O)Cc1cc(F)cc(F)c1)C(=O)N[C@H](C(=O)OC(C)(C)C)c1ccccc1 [DAPT] | induces the expression of muc2 gene | Enteroendocrine Cells, Paneth |  | 
CC[C@H]1OC(=O)[C@H](C)[C@@H](O[C@H]2C[C@@](C)(OC)[C@@H](O)[C@H](C)O2)[C@H](C)[C@@H](O[C@@H]2O[C@H](C)C[C@H](N(C)C)[C@H]2O)[C@](C)(O)C[C@@H](C)CN(C)[C@H](C)[C@@H](O)[C@]1(C)O [C] |  |  | inhibited goblet cells | promoting or maintaining differentiation to ciliated and club cells
Cc1ccc2nc(NC(=O)CSc3nc4c(c(=O)n3-c3ccccc3)SCC4)sc2c1 [IWP2] |  | Enterocytes, Enteroendocrine Cells |  | 
